How the values were obtained:
H9C2 cells [1] = assay: Mitochondrial ROS, MitoSox Red, H9C2; assay type: cell-based, Rat; details: H9C2, Dox alone
Procedure: AP39 treatment also ameliorated Dox toxicity in a model of Rat cardiomyoblast cell line, H9C2. […] There was a narrow window of protection, as 30 μM and 50 μm doses were not as strong as the 40 μM dose (FIGS. 5A and B) in conferring protection. […] Note that Dox caused an apoptotic phenotype in correlation with ROS levels (FIG. 5F, Dox lane). This in vitro AP39 protection is modest when compared to the in vivo scenario. This difference may be due to rapid clearance of toxic metabolites (for instance, higher lactate production, FIG. 10D) and better oxygen supply (AP39 stimulated OCR, FIG. 7C) in vivo and lack of such sophistication in vitro.

H9C2 cells [2] = assay: Mitochondrial H2S levels (AzMAC) and morphology (mitotracker Red) in H9C2 cells; assay type: cell-based, Rat; details: H9C2, single agent vs control
Text: Note that white arrow heads and yellow arrows compare and contrast no-H2S: fusion and H2S-presence: fission scenarios in the same image AP39 treatment lane.
Mitochondrial fission was correlated with H2S levels. To investigate the impact of Dox on mitochondrial biogenesis and mitochondrial H2S levels, H9C2 cells were used in combination with H2S sensitive dye AzMAC and mitotracker Red dye as reported previously^8. […] Further, H2S levels (yellow arrows) highly correlated with a dotted appearance of mitochondria, implying that H2S causes mitochondrial fission, which is a prerequisite for eliminating damaged mitochondria^49.

[3] = system: Myc/Max-regulated transcripts; assay: RNAseq analysis in H9C2 cell line; assay type: cell-based, Rat; details: H9C2, Dox alone
Procedure: The coverage among groups are indicated.
Next, to interrogate mechanisms of AP39 protection against DIC, RNAseq analysis was performed. There was sufficient coverage of the whole transcriptome among the groups (FIG. 8A).

[4] = 13C-glucose isotope tracing and GC-MS metabolite quantification; assay type: cell-based
Procedure: Stable isotope (13C glucose) tracer studies. Heatmap.
To this end, 13C-glucose flux/isotope tracing and quantified metabolites through GC-MS were examined at 16 hrs and 24 hrs after the treatments. Glucose, glutamine and lactate were also measured in supernatants at these time points. […] With the exception of glycolytic metabolites, the remaining metabolic pathways (poor labeling) were non-operational after Dox treatment (FIG. 10A).
When considered AP39-mediated activation of AMPK, H2S is selectively halting energy consuming anabolic pathways, such as protein synthesis (also, lipid, AMPK inhibits […], a rate limiting lipid synthesizing enzyme, FIGS. 7A and B), as observed before^41, thus leading to accumulation of amino acids and is enhancing TCA cycle through AMPK activation. The net result is better energy management with AP39/H2S treatment.

hiPSC-CMs = assay: DIC in hiPSC-CMs (Annexin V, MitoSox Red); assay type: cell-based, human
[5] = system: SK-N-BE(2) neuroblastoma cell line; assay: Cell viability (images, MTT) of SK-N-BE(2) neuroblastoma cell line; assay type: cell-based, human
Procedure: (§1) Methods for cell viability: Cells were plated in 96 wells/6 wells cell culture plates. After 24 hrs of plating, the treatments (added in the growth medium) were conducted. The following assays were performed after 24 hrs of the treatments (day 2). (FIGS. 15A, 17-20, 24-27)
(§2) MTT assay methods. For the MTT assay, […] of 5 mg/ml MTT-tetrazolium salts in PBS was added to each well containing the growth medium. After 3 hours of incubation, the medium was removed and the formazan crystals were dissolved by adding DMSO. The absorption of the formazan solution was measured using a spectrophotometer at a wavelength of 570 nm. FIGS. 15B, 21-22.
The SK-N-BE(2) neuroblastoma cell line was exposed to control, AP39 (AP) at 40 or 60 μM, Doxorubicin at 2.5 or 20 μM, thiolactate at 10 mM, AP39 and Doxorubicin, AP39 and thiolactate, or Doxorubicin and Thiolactate. […] FIGS. 17, 21, 24-25.

[6] = system: SK-N-BE(2) and SK-N-BE(1) cell lines; details: previous study; cited from earlier work
[7] = cited from earlier work
[8] = system: 786-O cells renal cancer cells; assay: Cell viability of 786-O renal cancer cells; assay type: cell-based
Procedure: as §1, §2
786-O cells renal cancer cells were exposed to control, AP39 (AP) at 40 or 60 μM, Doxorubicin at 2.5 or 20 μM, thiolactate at 10 mM, AP39 and Doxorubicin, AP39 and thiolactate, or Doxorubicin and Thiolactate. […] FIGS. 18 and 21.

A549 lung cancer cells = assay: Cell viability of A549 lung cancer cells; assay type: cell-based
Procedure: as §1, §2
A549 lung cancer cells were exposed to control, AP39 (AP) at 40 or 60 μM, Doxorubicin at 2.5 or 20 μM, thiolactate at 10 mM, AP39 and Doxorubicin, AP39 and thiolactate, or Doxorubicin and Thiolactate. […] FIGS. 19 and 21.

H1299 lung cancer cells = assay: Cell viability of H1299 lung cancer cells; assay type: cell-based
Procedure: as §1, §2
H1299 lung cancer cells were exposed to control, AP39 (AP) at 40 or 60 μM, Doxorubicin at 2.5 or 20 μM, thiolactate at 10 mM, AP39 and Doxorubicin, AP39 and thiolactate, or Doxorubicin and Thiolactate. […] FIGS. 20-22.

MCF7 breast cancer cells = assay: Cell viability (MTT, crystal violet) of MCF7 breast cancer cells; assay type: cell-based
Procedure: as §1, §2
Crystal Violet (CV) assay. For the CV Staining assay, cells were stained with 0.5% crystal violet in 30% ethanol for 10 minutes at room temperature after removal of the medium. The cells were lysed in a 1% SDS (sodium dodecyl sulfate) solution. The absorbance of the solution was measured using a spectrophotometer at a wavelength of 595 nm. FIG. 27.
MCF7 breast cancer cells were exposed to control, AP39 (AP) at 40 or 60 μM, Doxorubicin at 2.5 or 20 μM, thiolactate at 10 mM, AP39 and Doxorubicin, AP39 and thiolactate, or Doxorubicin and Thiolactate. […] FIGS. 26-27.

[9] = AP39 40 or 60 μM, thiolactate 10 mM, 24 hrs
[10] = combination with Doxorubicin 2.5 μM

In the case of `COc1cccc2c1C(=O)c1c(O)c3c(c(O)c1C2=O)C[C@@](O)(C(=O)CO)C[C@@H]3O[C@H]1C[C@H](N)[C@H](O)[C@H](C)O1` [Dox, Doxorubicin], the “mitochondrial ROS levels” value (H9C2 cells [1]) is reported as “elevating damaging ROS levels”, the “mitochondrial H2S levels (AzMAC)” value (H9C2 cells [2]) is reported as “significantly reduced mitochondrial H2S production” and the “mitochondrial morphology (fission / fusion)” value (H9C2 cells [2]) is reported as “mitochondrial fusion”. For the same compound, the Myc transcription [3] was “attenuated Myc transcription”, the “Serine and glycine 13C labeling” value ([4]; 16 hrs and 24 hrs) was “highly labeled” and the “abundance of most metabolites (GC-MS)” value ([4]; 24 hrs of Dox treatment) was “present in abundant amounts”. The “DIC in hiPSC-CMs at lower dose of Dox” value (hiPSC-CMs; 2.5 μM Dox, donor, data not showed) was “exhibited resistance to DIC”, the “cell death in hiPSC-CMs” value (hiPSC-CMs; 7.5 μM Dox, 48 hrs) was “significant cell death” and the “effective Dox dose” value ([5]; AP39 used along with Dox) was 2.5 µM. For the same compound, the “IC70 of Dox” value ([5]; Dox alone, 24 hrs) was 20 µM, the “IC90 for SK-N-BE(2) relative to IC90 for SK-N-BE(1)” value [6] was 9230 times and the “late cardiac dysfunction incidence” value ([7]; after Dox treatment) was 16%. The sub-clinical disease rate ([7]; after Dox treatment) was “over 50%” and the “Cumulative left ventricular systolic dysfunction (LVSD) incidence rate” value ([7]; within 18 months of Dox treatment) was 12%.
For `CC(S)C(=O)O` (stereo not drawn) [thiolactate, Thiolactate], the “cell killing, agent alone” value [5, 9] was “able to kill SK-N-BE(2) cells”, the “potency of low doses of Doxorubicin” value [5, 10] was “able to increase the potency of low doses of Doxorubicin” and the “cell killing, agent alone” value [8, 9] was “able to kill renal cancer cells”. For the same compound, the “potency of low doses of Doxorubicin” value [8, 10] was “able to increase the potency of low doses of Doxorubicin”, the “cell killing, agent alone” value (A549 lung cancer cells; [9]) was “able to kill lung cancer cells” and the “potency of low doses of Doxorubicin” value (A549 lung cancer cells; [10]) was “able to increase the potency of low doses of Doxorubicin”. For the same compound, the “cell killing, agent alone” value (H1299 lung cancer cells; [9]) was “able to kill lung cancer cells”, the “potency of low doses of Doxorubicin” value (H1299 lung cancer cells; [10]) was “able to increase the potency of low doses of Doxorubicin” and the “cell killing, agent alone” value (MCF7 breast cancer cells; [9]) was “able to kill breast cancer cells”. The “potency of low doses of Doxorubicin” value (MCF7 breast cancer cells; [10]) was “able to increase the potency of low doses of Doxorubicin”.
